ChEMBL document CHEMBL1201862, “PubChem BioAssay data set” (2004)
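Assay format: 96-well plates, 48-hour exposure. Here, GI50 denotes the concentration required for 50% inhibition of growth.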 The source made the active and inactive calls. No stated cut-off is given here; in the data, active = GI50 up to about 1.1 µM and inactive = higher.

Assays:
Assay in all cases: inhibition of tumour cell growth, NCI panel, 48 h
[1] = system: A549
[2] = system: HCT-116
[3] = system: DU-145
[4] = system: SF-295
[5] = system: SK-OV-3
[6] = system: TK-10
[7] = system: SN12C
[8] = system: SK-MEL-2
[9] = system: SF-268
[10] = system: Hs-578T
[11] = system: NCI-H226
[12] = system: HCC 2998
[13] = system: MDA-N
[14] = system: MOLT-4
[15] = system: NCI-H460
[16] = system: Malme-3M
[17] = system: RXF 393
[18] = system: K562

Structure (SMILES)	GI50 [1]	GI50 [2]	GI50 [3]	GI50 [4]	GI50 [5]	GI50 [6]	GI50 [7]	GI50 [8]	GI50 [9]	GI50 [10]	GI50 [11]	GI50 [12]	GI50 [13]	GI50 [14]	GI50 [15]	GI50 [16]	GI50 [17]	GI50 [18]
COc1ccc(C(=O)N2CCN(c3ccc4[nH]c(=O)oc4c3)CC2)cc1	> 100 µM (inactive)	> 100 µM (inactive)	> 100 µM (inactive)	> 100 µM (inactive)	> 100 µM (inactive)	> 100 µM (inactive)	> 100 µM (inactive)	> 100 µM (inactive)	> 100 µM (inactive)	58.5 µM (inactive)	> 100 µM (inactive)	> 100 µM (inactive)	> 100 µM (inactive)	> 100 µM (inactive)	> 100 µM (inactive)	48.5 µM (inactive)	–	–
CN(C)Cc1ccc(O)c(CN(C)C)n1	> 100 µM (inactive)	> 100 µM (inactive)	> 100 µM (inactive)	> 100 µM (inactive)	> 100 µM (inactive)	> 100 µM (inactive)	> 100 µM (inactive)	> 100 µM (inactive)	> 100 µM (inactive)	> 100 µM (inactive)	> 100 µM (inactive)	–	> 100 µM (inactive)	> 100 µM (inactive)	> 100 µM (inactive)	> 100 µM (inactive)	> 100 µM (inactive)	> 100 µM (inactive)
COc1cc(C(=O)NNC(=O)c2cc(Br)ccc2NC(=O)c2cccs2)cc(OC)c1OC	21.2 µM (inactive)	18.7 µM (inactive)	29.3 µM (inactive)	19.1 µM (inactive)	9.16 µM (inactive)	25.3 µM (inactive)	20 µM (inactive)	18.6 µM (inactive)	9.64 µM (inactive)	20.9 µM (inactive)	13.7 µM (inactive)	–	24.8 µM (inactive)	27.1 µM (inactive)	20.2 µM (inactive)	23.2 µM (inactive)	13.1 µM (inactive)	< 0.01 µM (active)
CC(C)(C)NCc1cc(C(C)(C)C)cc(-c2ccc(Cl)cc2)c1O	16 µM (inactive)	13.2 µM (inactive)	11.7 µM (inactive)	17.3 µM (inactive)	17.1 µM (inactive)	12 µM (inactive)	15.2 µM (inactive)	18.4 µM (inactive)	12.6 µM (inactive)	13.3 µM (inactive)	–	14.7 µM (inactive)	16.1 µM (inactive)	–	12.5 µM (inactive)	13.8 µM (inactive)	–	–
O=C(OCC1OC2OC(c3ccccc3)(n3ccc4c([N+](=O)[O-])ccnc43)OC2C1OC(=O)c1ccccc1)c1ccccc1 (centres undefined)	> 100 µM (inactive)	> 100 µM (inactive)	> 100 µM (inactive)	> 100 µM (inactive)	> 100 µM (inactive)	> 100 µM (inactive)	> 100 µM (inactive)	> 100 µM (inactive)	–	64.7 µM (inactive)	> 100 µM (inactive)	> 100 µM (inactive)	> 100 µM (inactive)	> 100 µM (inactive)	> 100 µM (inactive)	> 100 µM (inactive)	–	> 100 µM (inactive)
O=C1/C(=C/c2ccc(OC(=O)c3ccc(Cl)cc3)cc2)CCC/C1=C\c1ccc(OC(=O)c2ccc(Cl)cc2)cc1	> 100 µM (inactive)	> 100 µM (inactive)	> 100 µM (inactive)	–	–	94.8 µM (inactive)	> 100 µM (inactive)	> 100 µM (inactive)	> 100 µM (inactive)	23.8 µM (inactive)	–	> 100 µM (inactive)	> 100 µM (inactive)	> 100 µM (inactive)	> 100 µM (inactive)	–	–	–
C=CC(C)(C)c1c(OC)oc2ccc(OC)c(C)c2c1=O	> 100 µM (inactive)	89.7 µM (inactive)	> 100 µM (inactive)	> 100 µM (inactive)	> 100 µM (inactive)	> 100 µM (inactive)	> 100 µM (inactive)	> 100 µM (inactive)	> 100 µM (inactive)	> 100 µM (inactive)	> 100 µM (inactive)	> 100 µM (inactive)	> 100 µM (inactive)	49.5 µM (inactive)	> 100 µM (inactive)	> 100 µM (inactive)	–	78.2 µM (inactive)
